Literature values in patent publication US20100323985A1, “PHARMACEUTICAL OR COSMETIC PREPARATIONS FOR TOPICAL AND/OR PARENTERAL APPLICATION, PREPARATION METHODS THEREOF AND USE OF SAME” (priority 2007, published 2010).

Key:
[1] = humans
[2] = in vivo

excretion in the urine [1]: less than 1 % of total clearance
immunogenicity [2]: no immunogenicity
Substance: hyaluronic acid
tolerance [2]: very good
